Source: patent US8772002B1, “Method for treatment of microorganisms during propagation, conditioning and fermentation using hops acid extracts and organic acid” (Hercules Incorporated, priority 2013, dated 2014)
Where two headings read alike, the source gives them in different places.

What was measured:
[1] = system: Lactobacillus plantarum; assay: Minimal Inhibitory Concentration (MIC), two-fold dilution series in 96 well microplate; assay type: cell-based; conditions: for MIC: Lactiplantibacillus plantarum
Experimental: This is the lowest concentration of a substance or substances which can achieve complete inhibition of growth.
In order to determine the Minimal Inhibitory Concentration, a two-fold dilution series of the antimicrobial is constructed with the dilutions being made in growth media. The dilutions are made in a 96 well microplate such that each well has a final volume of 280 μl of media and antimicrobial. […] After the dilution series is constructed the wells receive an inoculum of microbe suspended in growth media such that the final concentration of microbes in the well is i˜5×10^5 cfu/ml. In these examples the test microbe used is Lactobacillus plantarum. The cultures are incubated at 37° C. for 18-24 hours, and the wells scored as positive or negative for growth based on a visual examination for turbid wells, with turbidity being an indicator of growth.
(§1) Minimal inhibitory concentrations were determined for both citric acid and hops acid at pH 6 using the protocol described above with Lactobacillus plantarum as the test microbe. Checkerboard synergy plates were constructed as described, the wells inoculated to a final concentration of ˜5×10^5 cfu/ml, incubated for 18-24 hours, and then scored visually for growth/no growth.
as §1, with “benzoic” for “citric”

[2] = system: Weisella confusa; conditions: cited from earlier work
[3] = system: fermentation; conditions: cited from earlier work

For O=C(O)c1ccccc1 [Benzoic Acid, benzoic acid], which MIC ([1]; pH 6, read-out: Benzoic Acid MIC (QA) used alone) is on record?
The MIC was 100 mg/mL.

For O=C(O)CC(O)(CC(=O)O)C(=O)O [Citric Acid, citric acid], which MIC ([1]; pH 6, 37° C., 18-24 hours, complete inhibition of growth, read-out: Citric Acid MIC (QA) used alone) is on record?
The MIC was 100 mg/mL.

And the “Citric Acid MIC (QA) used alone” value ([1]; pH 6, 37° C., 18-24 hours, complete inhibition of growth)?
The value was 100000 ppm.

For Virginiamycin, which “concentration required to inhibit growth of Weisella confusa” value [2] is on record?
The value was “over 25 mg/L”.

What about the “concentration that will suppress fermentation” value [3] of the same compound?
Its value is “over 2 mg/L”.
